The text below walks through data of patent US5688787A, “Substituted β-lactam compounds useful as hypochlesterolemic agents and processes for the preparation thereof” (priority 1996, dated 1997).

For one test, the target named is T1, ACAT (Rattus norvegicus, UniProt Q7TQM4).
T1 construct: Rat liver microsomes are used as the source of ACAT; from tissue; host or cells: rat liver microsomes
T1 sequence (Q7TQM4 1-524): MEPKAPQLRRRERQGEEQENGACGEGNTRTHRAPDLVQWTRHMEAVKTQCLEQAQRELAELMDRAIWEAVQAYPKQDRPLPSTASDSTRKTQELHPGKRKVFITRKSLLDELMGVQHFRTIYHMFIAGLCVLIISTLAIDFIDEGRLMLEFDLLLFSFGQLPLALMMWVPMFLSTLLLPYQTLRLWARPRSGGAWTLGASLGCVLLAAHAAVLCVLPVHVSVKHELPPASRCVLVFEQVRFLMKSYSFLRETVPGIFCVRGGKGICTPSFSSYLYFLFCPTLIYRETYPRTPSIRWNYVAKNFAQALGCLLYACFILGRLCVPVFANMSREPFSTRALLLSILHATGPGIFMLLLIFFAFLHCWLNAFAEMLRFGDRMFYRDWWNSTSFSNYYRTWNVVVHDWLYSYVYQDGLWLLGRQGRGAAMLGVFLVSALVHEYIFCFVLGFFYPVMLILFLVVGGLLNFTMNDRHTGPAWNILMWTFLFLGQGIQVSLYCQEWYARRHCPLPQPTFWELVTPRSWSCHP
Briefly: ACAT Assay (in vitro). Format: biochemical. Particulars: for inhibition at 10 µM: Conc. 10 µM, negative = apparent stimulation, read-out: ACAT (in vitro) % Inhib.; for IC50: rat liver microsomes, read-out: ACAT (in vitro) IC50. On the technique in general: Liver microsomes are vesicles of endoplasmic reticulum, rich in cytochrome P450 enzymes.

Another test concerns Hyperlipidemic Hamster. In words: In Vivo Assay of Hypolipidemic Agents Using the Hyperlipidemic Hamster. The conditions noted are these: Mesocricetus auratus, po, 168 h, 7 days, percent change versus control, negative = lowering; for change in vivo at 50 mg/kg: 50 mg/kg once daily oral; for change in vivo at 5 mg/kg: 5 mg/kg once daily oral; for change in vivo at 10 mg/kg: 10 mg/kg once daily oral; for change in vivo at 25 mg/kg: 25 mg/kg once daily oral. The method, boiled down:
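Hamsters, six per group, were fed chow with 0.5% cholesterol for seven days and given compound once daily by oral gavage in corn oil; controls received corn oil alone. Plasma (EDTA) and liver lipids were measured at sacrifice. Values are percent change versus control, so negative means lowering.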

Setting [1] is: read-out: % Reduction (in vivo) Cholest. Esters.
[2] abbreviates: read-out: % Reduction (in vivo) Serum Cholest.

Like-named read-outs stand apart in the source and are kept apart here.

Method for ACAT: This assay measures the activity of ACAT by measuring the ACAT-mediated transfer of tritiated oleic acid from acyl-CoA to cholesterol to give labelled cholesteryl oleate. Rat liver microsomes are used as the source of ACAT. Assays are performed in round bottom microtiterplates using a total incubation volume of 50 μL. […] The microtiterplate is then floated on the surface of a 37° C. water bath for fifteen minutes. Incubations are started by the addition of 3 μL ^3 H-acyl CoA (1 μCi/well, final concentration of 10 μM acyl CoA). The plate is then returned to the water bath for 15 minutes. The incubations are then terminated by application of 15 μL from each incubation to individual lanes on a thin layer plate (Silica Gel GF 20×20 cm). Standards are applied to several lanes so that the cholesteryl ester band can be identified. After drying, the plates am eluted with 90:10:1 petroleum ether:diethyl ether:acetic acid. The standards am visualized via iodine vapor, and the regions corresponding to cholesteryl ester are scraped into 7 mL scintillation vials. 4 mL of scintillant are added to each vial, and the radioactivity quantified. Background count is determined by the boiled controls. Full activity is determined by activity in the presence of vehicle. The percent inhibition is calculated by subtracting the background from both control and test samples, and the test value is calculated as a percentage of the control.
For the in vitro ACAT data, negative percent inhibition denotes apparent stimulation,while positive numbers denote inhibition.

For `CC[C@@H]1C(=O)N(c2ccc(OC)cc2)[C@H]1c1ccc(N)cc1` (relative stereo) [Example 8A], on ACAT, the inhibition at 10 µM was -17%. The change in vivo at 50 mg/kg with Hyperlipidemic Hamster (setting [1]) and with Hyperlipidemic Hamster (setting [2]) was 0% throughout.
As for `COc1ccc([C@@H]2[C@H](OCCc3ccccc3)C(=O)N2c2ccc(OC)cc2)cc1` (relative stereo) [Example 7AE], at ACAT, the inhibition at 10 µM was -95%. The change in vivo at 50 mg/kg in the test with Hyperlipidemic Hamster (setting [1]) is -10%; with Hyperlipidemic Hamster (setting [2]), -17%.
The matching figures for `CC[C@@]1(CCCc2ccccc2)C(=O)N(c2ccc(OC)cc2)[C@@H]1/C=C/c1ccccc1` (relative stereo) [Example 3]: 56%, 0% and 0%.
`COc1ccc([C@@H]2[C@@H](N(C)CCc3ccccc3)C(=O)N2c2ccccc2)cc1` (relative stereo) [Example 5N]: the inhibition at 10 µM at ACAT is -23%. In addition, the change in vivo at 50 mg/kg is -55% in the test on Hyperlipidemic Hamster (setting [1]) and -17% in the test with Hyperlipidemic Hamster (setting [2]).
The matching figures for `CC[C@@]1(c2ccccc2)C(=O)N(c2ccc(OC)cc2)[C@H]1c1ccccc1` (relative stereo) [Example 1Z]: -15%, -39% and -15%.
The matching figures for `COc1ccc(N2C(=O)[C@H](CCCc3ccccc3)[C@@H]2c2ccc(CN3CCN(C)CC3)cc2)cc1` (relative stereo) [Example 19B]: 53%, -31% and -26%.
The matching figures for `CC[C@@H]1C(=O)N(c2ccc(OC)cc2)[C@@H]1c1ccc(OC)cc1` (relative stereo) [Example 1AL]: -43%, 0% and 0%.
For the compound `COc1ccc(N2C(=O)[C@H](CCCc3ccccc3)[C@H]2c2ccc(C=O)cc2)cc1` (relative stereo) [Example 16A], the inhibition at 10 µM at ACAT is 55%. Moreover, the change in vivo at 50 mg/kg in the test on Hyperlipidemic Hamster (setting [1]) was -53%; in the test with Hyperlipidemic Hamster (setting [2]) it was -30%.
The matching figures for `COc1ccc(N2C(=O)[C@H](CCCc3ccccc3)[C@@H]2c2ccoc2)cc1` (relative stereo) [Example 1BE]: 30%, -21% and -10%.
The matching figures for `COc1ccc(N2C(=O)[C@@H](CCc3ccccc3)[C@H]2c2ccccc2)cc1` (relative stereo) [Example 1D]: 39%, 0% and 0%.
The matching figures for `CC[C@]1(CCCc2ccccc2)C(=O)N(c2ccc(OC)cc2)[C@H]1c1ccccc1` (relative stereo) [Example 3E]: -24%, 0% and 0%.
For the compound `CCOc1ccc([C@@H]2[C@@H](CCCc3ccccc3)C(=O)N2c2ccc(OC)cc2)cc1` (relative stereo) [Example 5S], the inhibition at 10 µM on ACAT came to 28%. The values for the change in vivo at 50 mg/kg with Hyperlipidemic Hamster (setting [1]) and in the test on Hyperlipidemic Hamster (setting [2]) were -98% and -52%, respectively.
The matching figures for `COc1ccc([C@H]2[C@@H](CCCc3ccccc3)C(=O)N2c2ccc(OCc3ccccc3)cc2)cc1` (relative stereo) [Example 35]: 18%, -32% and -15%.
In the case of `CCCCCCCCCC[C@@H]1C(=O)N(c2ccc(OC)cc2)[C@@H]1c1ccc(OC)cc1` (relative stereo) [Example 1CL], the inhibition at 10 µM on ACAT was 89%. Also, the change in vivo at 50 mg/kg in the test on Hyperlipidemic Hamster (setting [1]) was -18%; in the test on Hyperlipidemic Hamster (setting [2]) it was 0%.
The matching figures for `COc1ccc([C@H]2[C@@H](CCOc3ccc(F)cc3)C(=O)N2c2ccc(OC)cc2)cc1` (relative stereo) [Example 1CG]: 8%, -61% and -30%.
For orientation: IC50 means the concentration at which inhibition is half-maximal. Take `COc1ccc([C@H]2[C@@H](CCOc3ccccc3)C(=O)N2c2ccc(OC)cc2)cc1` (relative stereo) [Example 1CD]: the inhibition at 10 µM on ACAT came to 84%. The 50% inhibitory concentration (IC50) at ACAT was found to be 7 µM. The results for the change in vivo at 50 mg/kg with Hyperlipidemic Hamster (setting [1]) and with Hyperlipidemic Hamster (setting [2]) were -23% and 0%, respectively.
As to `COc1ccc(N2C(=O)[C@H](CCCc3ccccc3)[C@H]2c2ccc(OC)c(OC)c2)cc1` (relative stereo) [Example 5P], at ACAT, the inhibition at 10 µM was found to be 53%. Also, the change in vivo at 50 mg/kg was -33% in the test on Hyperlipidemic Hamster (setting [1]) and -11% in the test on Hyperlipidemic Hamster (setting [2]).
Consider `COc1cc(OC)c(N2C(=O)C(CCCc3ccccc3)C2c2ccccc2)c(OC)c1` (centres unmarked) [Example 1F], for which the inhibition at 10 µM at ACAT was found to be 61%. For the same compound, the change in vivo at 50 mg/kg in the test with Hyperlipidemic Hamster (setting [1]) came to 20%; in the test with Hyperlipidemic Hamster (setting [2]), 0%.
As for `COc1ccc(N2C(=O)[C@@H](CCCc3ccccc3)[C@H]2c2ccc(O)cc2)cc1` (relative stereo) [Example 1L], the inhibition at 10 µM on ACAT came out at 20%. Besides, in the test on Hyperlipidemic Hamster (setting [1]), the change in vivo at 5 mg/kg is -30%, the change in vivo at 10 mg/kg was -34% and the change in vivo at 50 mg/kg is -75%. Besides, in the test with Hyperlipidemic Hamster (setting [2]), the change in vivo at 5 mg/kg is -25%, the change in vivo at 10 mg/kg is -22% and the change in vivo at 50 mg/kg is -31%.
For the compound `COc1ccc(N2C(=O)[C@H](CCCc3ccccc3)[C@H]2c2ccc(CN3CCOCC3)cc2)cc1` (relative stereo) [Example 19], on ACAT, the inhibition at 10 µM was determined as 24%. Further, the change in vivo at 50 mg/kg in the test with Hyperlipidemic Hamster (setting [1]) is -51%; in the test with Hyperlipidemic Hamster (setting [2]), -20%.
The matching figures for `CC[C@]1(CCCc2ccccc2)C(=O)N(c2ccc(OC)cc2)[C@H]1c1ccc(OC)cc1` (relative stereo) [Example 3M]: 13%, 0% and 0%.
Turning to `COc1ccc(N2C(=O)[C@H](CCCc3ccccc3)[C@H]2c2ccc(C(F)(F)F)cc2)cc1` (relative stereo) [Example 1BG], the inhibition at 10 µM at ACAT came to 3%. Also, the change in vivo at 50 mg/kg with Hyperlipidemic Hamster (setting [1]) is 0%; in the test on Hyperlipidemic Hamster (setting [2]), 12%.
The matching figures for `COc1ccc(N2C(=O)[C@H](CCCc3ccccc3)[C@H]2c2ccoc2)cc1` (relative stereo) [Example 1BF]: -17%, -23% and 0%.
As for `COc1ccc(N2C(=O)[C@H](CCCc3ccccc3)[C@H]2c2ccc(O)cc2)cc1` (relative stereo) [Example 8F], at ACAT, the inhibition at 10 µM was 8%. Further, in the test with Hyperlipidemic Hamster (setting [1]), the change in vivo at 25 mg/kg was -45% and the change in vivo at 50 mg/kg was -48%. Besides, in the test on Hyperlipidemic Hamster (setting [2]), the change in vivo at 25 mg/kg was -20% and the change in vivo at 50 mg/kg is -16%.
In the case of `COc1ccc(N2C(=O)C(c3ccccc3)(C3CCCC3)C2c2ccccc2)cc1` (centres unmarked) [Example 1AC], the inhibition at 10 µM on ACAT was determined as 40%. The change in vivo at 50 mg/kg in the test on Hyperlipidemic Hamster (setting [1]) was -33%; in the test on Hyperlipidemic Hamster (setting [2]), -16%.
The matching figures for `COc1ccc(N2C(=O)[C@](CCCc3ccccc3)(c3ccccc3)[C@@H]2c2ccccc2)cc1` (relative stereo) [Example 3B]: 84%, -16% and -11%.
As for `COc1ccc(N2C(=O)C(CCCc3ccccc3)(CCCc3ccccc3)C2C=Cc2ccccc2)cc1` (centres unmarked) [Example 3N], the inhibition at 10 µM at ACAT was determined as 62%. In addition, the change in vivo at 50 mg/kg in the test with Hyperlipidemic Hamster (setting [1]) and with Hyperlipidemic Hamster (setting [2]) was 0% each time.
Turning to `COc1ccc(N2C(=O)[C@H](CCCc3ccccc3)[C@@H]2c2cccs2)cc1` (relative stereo) [Example 1BI], the inhibition at 10 µM on ACAT was determined as 59%. Also, the change in vivo at 50 mg/kg with Hyperlipidemic Hamster (setting [1]) was -45%; with Hyperlipidemic Hamster (setting [2]), -17%.
For the compound `COc1ccc(C=C[C@H]2[C@H](CCCc3ccccc3)C(=O)N2c2ccc(OC)cc2)cc1` (relative stereo) [Example 1M], at ACAT, the inhibition at 10 µM was 80% and the IC50 was 7 µM. Further, the change in vivo at 25 mg/kg in the test on Hyperlipidemic Hamster (setting [1]) was -31%. In addition, the change in vivo at 25 mg/kg in the test on Hyperlipidemic Hamster (setting [2]) was -11%.
